Test results from ChEMBL document CHEMBL1201862, “PubChem BioAssay data set” (2004).
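Five compound concentrations were applied to cells in 96-well plates for 48 hours; endpoints were derived by simple linear interpolation of the resulting dose-response curve. Here, GI50 denotes the concentration required for 50% inhibition of growth.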 Active and inactive are the calls of the source. Cut-off read from the data, not from the text of the source: active = GI50 up to about 1.1 µM and inactive = higher.

Legend:
Experiment in all cases: NCI anticancer screen, dose series, 48 h
[1] = system: 786-0
[2] = system: A498
[3] = system: A549
[4] = system: ACHN
[5] = system: BT-549
[6] = system: CAKI-1
[7] = system: CCRF-CEM
[8] = system: COLO 205
[9] = system: DU-145
[10] = system: EKVX
[11] = system: HCT-116
[12] = system: HCT-15
[13] = system: HL-60
[14] = system: HOP-62
[15] = system: HOP-92
[16] = system: HT-29
[17] = system: Hs-578T
[18] = system: IGROV-1
[19] = system: K562
[20] = system: KM12
[21] = system: LOX IMVI
[22] = system: M14
[23] = system: MCF7
[24] = system: MDA-MB-231
[25] = system: MDA-MB-435
[26] = system: MDA-N
[27] = system: MOLT-4
[28] = system: Malme-3M
[29] = system: NCI-H226
[30] = system: NCI-H23
[31] = system: NCI-H460
[32] = system: NCI-H522
[33] = system: NCI/ADR-RES
[34] = system: OVCAR-3
[35] = system: OVCAR-4
[36] = system: OVCAR-5
[37] = system: OVCAR-8
[38] = system: PC-3
[39] = system: RPMI-8226
[40] = system: RXF 393
[41] = system: SF-268
[42] = system: SF-295
[43] = system: SF-539
[44] = system: SK-MEL-28
[45] = system: SK-MEL-2
[46] = system: SK-MEL-5
[47] = system: SK-OV-3
[48] = system: SN12C
[49] = system: SNB-19
[50] = system: SNB-75
[51] = system: SR
[52] = system: SW-620
[53] = system: T47D
[54] = system: TK-10
[55] = system: U-251
[56] = system: UACC-257
[57] = system: UACC-62
[58] = system: UO-31
[59] = system: HCC 2998

Q: `CCC1C2Cc3ccc(O)cc3C1(CC)CCN2C` (centres undefined) was tested. Which GI50 [1] did it give?
A: Its GI50 is > 100 µM (inactive).

Q: And the GI50 [2]?
A: Its GI50 is > 100 µM (inactive).

Q: What about the GI50 [3] of the same molecule?
A: The GI50 was > 100 µM (inactive).

Q: And the GI50 [4]?
A: The GI50 was > 100 µM (inactive).

Q: What about the GI50 [5] of the same molecule?
A: The GI50 was > 100 µM (inactive).

Q: And the GI50 [6]?
A: The GI50 was > 100 µM (inactive).

Q: And the GI50 [7]?
A: Its GI50 is > 100 µM (inactive).

Q: What about the GI50 [8] of the same molecule?
A: The GI50 was > 100 µM (inactive).

Q: And the GI50 [9]?
A: The GI50 was > 100 µM (inactive).

Q: And the GI50 [10]?
A: Its GI50 is > 100 µM (inactive).

Q: And the GI50 [11]?
A: Its GI50 is > 100 µM (inactive).

Q: And the GI50 [12]?
A: Its GI50 is over 100 µM.

Q: And the GI50 [13]?
A: Its GI50 is > 100 µM (inactive).

Q: What about the GI50 [14] of the same molecule?
A: Its GI50 is > 100 µM (inactive).

Q: What about the GI50 [15] of the same molecule?
A: Its GI50 is > 100 µM (inactive).

Q: What about the GI50 [16] of the same molecule?
A: Its GI50 is > 100 µM (inactive).

Q: What about the GI50 [17] of the same molecule?
A: The GI50 was > 100 µM (inactive).

Q: And the GI50 [18]?
A: Its GI50 is > 100 µM (inactive).

Q: And the GI50 [19]?
A: The GI50 was > 100 µM (inactive).

Q: What about the GI50 [20] of the same molecule?
A: Its GI50 is > 100 µM (inactive).

Q: And the GI50 [21]?
A: Its GI50 is > 100 µM (inactive).

Q: And the GI50 [22]?
A: The GI50 was > 100 µM (inactive).

Q: What about the GI50 [23] of the same molecule?
A: Its GI50 is > 100 µM (inactive).

Q: What about the GI50 [24] of the same molecule?
A: Its GI50 is > 100 µM (inactive).

Q: And the GI50 [25]?
A: Its GI50 is > 100 µM (inactive).

Q: And the GI50 [26]?
A: Its GI50 is > 100 µM (inactive).

Q: And the GI50 [27]?
A: The GI50 was > 100 µM (inactive).

Q: What about the GI50 [28] of the same molecule?
A: The GI50 was > 100 µM (inactive).

Q: And the GI50 [29]?
A: The GI50 was > 100 µM (inactive).

Q: And the GI50 [30]?
A: Its GI50 is > 100 µM (inactive).

Q: And the GI50 [31]?
A: The GI50 was > 100 µM (inactive).

Q: And the GI50 [32]?
A: The GI50 was > 100 µM (inactive).

Q: And the GI50 [33]?
A: Its GI50 is > 100 µM (inactive).

Q: What about the GI50 [34] of the same molecule?
A: The GI50 was > 100 µM (inactive).

Q: What about the GI50 [35] of the same molecule?
A: Its GI50 is > 100 µM (inactive).

Q: And the GI50 [36]?
A: Its GI50 is > 100 µM (inactive).

Q: And the GI50 [37]?
A: The GI50 was > 100 µM (inactive).

Q: What about the GI50 [38] of the same molecule?
A: Its GI50 is > 100 µM (inactive).

Q: And the GI50 [39]?
A: Its GI50 is > 100 µM (inactive).

Q: What about the GI50 [40] of the same molecule?
A: The GI50 was > 100 µM (inactive).

Q: And the GI50 [41]?
A: Its GI50 is > 100 µM (inactive).

Q: And the GI50 [42]?
A: Its GI50 is > 100 µM (inactive).

Q: What about the GI50 [43] of the same molecule?
A: The GI50 was > 100 µM (inactive).

Q: And the GI50 [44]?
A: Its GI50 is > 100 µM (inactive).

Q: What about the GI50 [45] of the same molecule?
A: The GI50 was > 100 µM (inactive).

Q: And the GI50 [46]?
A: Its GI50 is > 100 µM (inactive).

Q: And the GI50 [47]?
A: The GI50 was > 100 µM (inactive).

Q: What about the GI50 [48] of the same molecule?
A: Its GI50 is > 100 µM (inactive).

Q: And the GI50 [49]?
A: Its GI50 is > 100 µM (inactive).

Q: And the GI50 [50]?
A: The GI50 was > 100 µM (inactive).

Q: And the GI50 [51]?
A: Its GI50 is > 100 µM (inactive).

Q: What about the GI50 [52] of the same molecule?
A: Its GI50 is > 100 µM (inactive).

Q: What about the GI50 [53] of the same molecule?
A: Its GI50 is > 100 µM (inactive).

Q: What about the GI50 [54] of the same molecule?
A: Its GI50 is > 100 µM (inactive).

Q: What about the GI50 [55] of the same molecule?
A: Its GI50 is > 100 µM (inactive).

Q: What about the GI50 [56] of the same molecule?
A: The GI50 was 77.3 µM (inactive).

Q: What about the GI50 [57] of the same molecule?
A: Its GI50 is > 100 µM (inactive).

Q: What about the GI50 [58] of the same molecule?
A: Its GI50 is > 100 µM (inactive).

Q: Which GI50 [1] does the source give for `O=C(CCc1cc(O)cc(O)c1)NCCc1cc(O)cc(O)c1` here?
A: Its GI50 is > 100 µM (inactive).

Q: What about the GI50 [2] of the same molecule?
A: The GI50 was > 100 µM (inactive).

Q: What about the GI50 [3] of the same molecule?
A: Its GI50 is > 100 µM (inactive).

Q: And the GI50 [4]?
A: Its GI50 is > 100 µM (inactive).

Q: And the GI50 [5]?
A: Its GI50 is > 100 µM (inactive).

Q: And the GI50 [6]?
A: The GI50 was > 100 µM (inactive).

Q: And the GI50 [7]?
A: Its GI50 is > 10 µM (inactive).

Q: What about the GI50 [8] of the same molecule?
A: Its GI50 is > 100 µM (inactive).

Q: What about the GI50 [9] of the same molecule?
A: Its GI50 is > 100 µM (inactive).

Q: And the GI50 [10]?
A: Its GI50 is > 100 µM (inactive).

Q: And the GI50 [59]?
A: The GI50 was > 100 µM (inactive).

Q: What about the GI50 [11] of the same molecule?
A: Its GI50 is > 100 µM (inactive).

Q: And the GI50 [12]?
A: Its GI50 is over 100 µM.

Q: What about the GI50 [14] of the same molecule?
A: The GI50 was > 100 µM (inactive).

Q: And the GI50 [15]?
A: The GI50 was > 100 µM (inactive).

Q: What about the GI50 [16] of the same molecule?
A: Its GI50 is > 100 µM (inactive).

Q: What about the GI50 [17] of the same molecule?
A: The GI50 was > 100 µM (inactive).

Q: What about the GI50 [18] of the same molecule?
A: The GI50 was > 100 µM (inactive).

Q: And the GI50 [19]?
A: The GI50 was > 100 µM (inactive).

Q: And the GI50 [20]?
A: Its GI50 is > 100 µM (inactive).

Q: And the GI50 [21]?
A: Its GI50 is > 100 µM (inactive).

Q: What about the GI50 [22] of the same molecule?
A: The GI50 was > 100 µM (inactive).

Q: What about the GI50 [23] of the same molecule?
A: Its GI50 is > 100 µM (inactive).

Q: What about the GI50 [24] of the same molecule?
A: Its GI50 is > 100 µM (inactive).

Q: And the GI50 [25]?
A: Its GI50 is > 100 µM (inactive).

Q: And the GI50 [26]?
A: The GI50 was > 100 µM (inactive).

Q: And the GI50 [27]?
A: Its GI50 is > 100 µM (inactive).

Q: And the GI50 [29]?
A: The GI50 was > 100 µM (inactive).

Q: What about the GI50 [30] of the same molecule?
A: The GI50 was > 100 µM (inactive).

Q: And the GI50 [31]?
A: The GI50 was > 100 µM (inactive).

Q: And the GI50 [32]?
A: The GI50 was > 100 µM (inactive).

Q: What about the GI50 [33] of the same molecule?
A: The GI50 was > 100 µM (inactive).

Q: What about the GI50 [34] of the same molecule?
A: The GI50 was > 100 µM (inactive).

Q: What about the GI50 [36] of the same molecule?
A: The GI50 was > 100 µM (inactive).

Q: What about the GI50 [37] of the same molecule?
A: Its GI50 is > 100 µM (inactive).

Q: And the GI50 [38]?
A: Its GI50 is > 100 µM (inactive).

Q: And the GI50 [39]?
A: The GI50 was > 100 µM (inactive).

Q: What about the GI50 [40] of the same molecule?
A: The GI50 was > 100 µM (inactive).

Q: And the GI50 [41]?
A: The GI50 was > 100 µM (inactive).

Q: What about the GI50 [42] of the same molecule?
A: Its GI50 is > 100 µM (inactive).

Q: And the GI50 [43]?
A: Its GI50 is > 100 µM (inactive).

Q: And the GI50 [44]?
A: The GI50 was > 100 µM (inactive).

Q: And the GI50 [45]?
A: The GI50 was > 100 µM (inactive).

Q: And the GI50 [46]?
A: The GI50 was > 100 µM (inactive).

Q: What about the GI50 [47] of the same molecule?
A: Its GI50 is > 100 µM (inactive).

Q: What about the GI50 [48] of the same molecule?
A: The GI50 was > 100 µM (inactive).

Q: And the GI50 [49]?
A: Its GI50 is > 100 µM (inactive).

Q: What about the GI50 [50] of the same molecule?
A: The GI50 was > 100 µM (inactive).

Q: And the GI50 [51]?
A: The GI50 was > 100 µM (inactive).

Q: And the GI50 [52]?
A: Its GI50 is > 100 µM (inactive).

Q: And the GI50 [53]?
A: Its GI50 is > 100 µM (inactive).

Q: What about the GI50 [54] of the same molecule?
A: Its GI50 is > 100 µM (inactive).

Q: And the GI50 [55]?
A: The GI50 was > 100 µM (inactive).

Q: What about the GI50 [56] of the same molecule?
A: The GI50 was > 100 µM (inactive).

Q: What about the GI50 [57] of the same molecule?
A: The GI50 was > 100 µM (inactive).

Q: And the GI50 [58]?
A: The GI50 was > 100 µM (inactive).
